Source: ChEMBL document CHEMBL5357062, “Emopamil-Binding Protein Inhibitors for Treating Multiple Sclerosis” (ACS Med Chem Lett, 2024)

Target: 3-beta-hydroxysteroid-Delta(8),Delta(7)-isomerase (Homo sapiens, UniProt Q15125)
Assay: Inhibition of EBP in HEK293T cells using zymosterol-d5 as substrate preincubated for 30 mins followed by substrate addition and measured after 4 hrs by LC-MS analysis
Assay type: cell-based

3-beta-hydroxysteroid-Delta(8),Delta(7)-isomerase, sequence (Q15125 whole entry): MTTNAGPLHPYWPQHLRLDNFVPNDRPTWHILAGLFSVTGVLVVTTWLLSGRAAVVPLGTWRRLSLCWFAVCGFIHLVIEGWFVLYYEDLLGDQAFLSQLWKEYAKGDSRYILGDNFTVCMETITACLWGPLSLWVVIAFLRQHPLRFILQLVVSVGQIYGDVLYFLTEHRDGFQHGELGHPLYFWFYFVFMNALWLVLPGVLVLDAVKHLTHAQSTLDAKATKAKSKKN

Structure (SMILES)	IC50 [nM]
O=S(=O)(c1ccc(C(F)(F)F)nc1C1CC1)N1CC2(CN(C3CCOCC3)C2)C1	< 100
CC(C)c1cc(S(=O)(=O)N2CC3(CN(C4CCOCC4)C3)C2)n(C)n1	< 100
Cn1nc(C(F)(F)F)cc1S(=O)(=O)N1CCC2(CCN(C3CCOCC3)C2)CC1	< 100
O=S(=O)(c1cc(F)cc(F)c1)N1CCOC2(CCN(C3CCOCC3)C2)C1 (stereo unspecified)	< 100
Cc1nc(C(F)(F)F)ccc1S(=O)(=O)N1CC2(CN(C(C)C3CCCO3)C2)C1 (stereo unspecified)	< 100
Cn1nc(C(F)(F)F)cc1S(=O)(=O)N1CC2(CN(CC3CC4(COC4)C3)C2)C1	< 100
